US20220324770A1, “NITRIFICATION INHIBITORS” (The University of Melbourne, priority 2019, published 2022)

Tests used:
[1] = system: Terang soil; assay: Soil microcosm incubation (nitrification of applied ammonium), Terang soil; conditions: Terang soil pH 6.5, 25° C., L-DMPP 1.5 mol %; for Nitrified NH4+—N (%) Day 3: compounds 10 mol % of applied N, (NH4)2SO4 100 mg N per kg soil; for Nitrified NH4+—N (%) Day 7 / Nitrified NH4+—N (%) Day 14 / Nitrified NH4+—N (%) Day 28: compounds 10 mol %
Description: (§1) The soil used in this study was collected from four different locations in Victoria, Australia: (i) a wheat cropping soil from Horsham (36° 45′S, 142° 07′ E), (ii) a rotational cropping soil from Dahlen (36° 37′S, 142° 09′ E), (iii) a vegetable growing soil from Clyde (38° 08′S, 145° 20′ E), and (iv) a pasture soil from Terang (38° 15′S, 142° 52′E). In addition, a sugarcane cropping soil from South Johnstone in northern Queensland (17° 34′S, 145° 57′ E) was also studied. The water content of the soil was calculated before commencing each experiment, from samples that were oven-dried to constant weight. The soil's water-filled pore space (WFPS) was in the range 52%-61%, which is within the recommended 50-70% range for microbial activity due to oxygen and nutrient availability (Fichtner, T., et al., Applied Sciences, 2019, 9, 496).
(§2) Soil microcosm incubations were carried out in 250 ml polypropylene specimen containers (Sarstedt, Germany), containing 18.24 g oven dry-weight equivalent of soil. Microcosms were re-wetted and pre-incubated at the test temperature for seven days to revive soil microbial activity. Following pre-incubation, the remaining volume to reach the desired water-filled pore spaces (WFPS %) was applied as one of the following treatment solutions; (NH4)2SO4(Control), (NH4)2SO4+DMPP, or (NH4)2SO4+one of Compounds 1-23. Each treatment was applied in triplicate per soil type, so that n=3 at each time point.
(§3) Treatment solutions were prepared such that each microcosm received (NH4)2SO4 at a rate of 100 mg N per kg soil, Compounds 1-23 at 10 mol % of applied N, or DMPP at one of 1.5, 3.6 or 10 mol % of applied N, referred to as L-DMPP, M-DMPP or H-DMPP respectively.
(§4) The microcosms were incubated for 0, 3, 7, 14, 21 or 28 days, where day 0 samples were extracted following 1-hour incubation post-treatment. Soil microcosms were aerated and moisture levels were replenished based on weight loss every few days throughout the incubation period.
(§5) At the end of each incubation period, soil microcosms were destructively sampled by treatment with 2M KCl (100 mL). After shaking for 1 hour, soil-KCl solutions were filtered (Whatman 42) before storing the filtrates at −20° C. until the conclusion of the experiment. All KCl extracts were then analysed by Segmented Flow Analysis (San++, Skalar, Breda, The Netherlands) for the concentration of nitrogen from ammonium (NH4^+—N) and nitrogen from NO3 and NO2 (NOx^−—N) after appropriate dilutions. Results are reported as the mean of three replicates, errors reported are standard errors of the mean.
(§6) Nitrification calculations were performed as previously reported (Aulakh, M., et al., Biology and Fertility of Soils 2001, 33, 258-263; Mahmood, T., et al., Soil Research 2017, 55, 715-722) without correction for the initial baseline concentrations of NH4^+—N or NO3^− N in the untreated soil. For each treatment nitrified NH4^+—N (%) was calculated according to eqn. 1:
(§7) where [NH4^+—N]0 is the NH4^+—N concentration (in mg N kg^−1 soil) of the soil on day 0 and [NH4^+—N]t is the NH4^+—N concentration (in mg N kg^−1 soil) of the soil at a given time point t.

[2] = system: Horsham soil; assay: Soil microcosm incubation (nitrification of applied ammonium), Horsham soil
Description: as §1, §2, §3, §4, §5, §6, §7
(§8) NOx^−—N accumulation rates (mg NOx^−—N/kg soil/day) over the 28-day incubation experiments were calculated for each treatment as in the following (eqn. 2):
(§9) [NOx^−—N]t=0 and [NOx^−—N]t=28 are the combined concentrations of nitrite (NO2) and nitrate (NO3) in the soil (in mg N kg^−1 soil) on day 0 and day 28, respectively.

[3] = system: Dahlen soil; assay: Soil microcosm incubation (nitrification of applied ammonium), Dahlen soil; conditions: for Nitrified NH4+—N (%) Day 3 / Nitrified NH4+—N (%) Day 7 / Nitrified NH4+—N (%) Day 14 / Nitrified NH4+—N (%) Day 21 / Nitrified NH4+—N (%) Day 28: 10 mol %
Description: as §1, §2, §3, §4, §5, §6, §7, §8, §9

[4] = system: South Johnstone soil; assay: Soil microcosm incubation (nitrification of applied ammonium), South Johnstone soil; conditions: for Nitrified NH4+—N (%) Day 3 / Nitrified NH4+—N (%) Day 7 / Nitrified NH4+—N (%) Day 14 / Nitrified NH4+—N (%) Day 21 / Nitrified NH4+—N (%) Day 28: 10 mol %
Description: as §1, §2, §3, §4, §5, §6, §7

[5] = Horsham soil pH 8.8, 25° C., 10 mol %
[6] = Horsham soil pH 8.8, 35° C., 10 mol %
[7] = Table 4, Dahlen soil pH 7.3, 25° C.
[8] = Table 4, Dahlen soil pH 7.3, 35° C.
[9] = Table 5, Dahlen soil pH 7.3, 25° C.
[10] = Table 5, Dahlen soil pH 7.3, 35° C.
[11] = South Johnstone soil pH 5.0, 25° C.
[12] = South Johnstone soil pH 5.0, 35° C.

Compound: CCCCCc1cn(CCCC)nn1 [Compound 1, 1-butyl-4-pentyl-1H-1,2,3-triazole]
- Nitrified NH4+—N (%) Day 3 [1]: 13.6 ± 3.1%
- Nitrified NH4+—N (%) Day 7 [1]: 43.1 ± 3.7%
- Nitrified NH4+—N (%) Day 14 [1]: 85.1 ± 4.5%
- Nitrified NH4+—N (%) Day 28 [1]: 100 ± 4.2%

Compound: CCCCc1cn(CCCC)nn1 [Compound 2, 1,4-butyl-1H-1,2,3-triazole]
- Nitrified NH4+—N (%) Day 3 ([2]; Horsham soil pH 8.8, 25° C., inhibitors 10 mol % of applied N): 12.2 ± 8.6%
- Nitrified NH4+—N (%) Day 7 [2, 5]: 17.9 ± 6.9%
- Nitrified NH4+—N (%) Day 14 [2, 5]: 44.5 ± 7.2%
- Nitrified NH4+—N (%) Day 21 [2, 5]: 66.6 ± 8.9%
- Nitrified NH4+—N (%) Day 28 [2, 5]: 90.4 ± 9.7%
- Nitrified NH4+—N (%) Day 3 [2, 6]: −3.3 ± 5.9%
- Nitrified NH4+—N (%) Day 7 [2, 6]: 8.8 ± 5.5%
- Nitrified NH4+—N (%) Day 14 [2, 6]: 40.3 ± 5.4%
- Nitrified NH4+—N (%) Day 21 [2, 6]: 53.8 ± 9.4%
- Nitrified NH4+—N (%) Day 28 [2, 6]: 71.6 ± 22.9%
- retaining NH4+ vs uninhibited control treatment ([2]; Horsham soil, 25° C., after 28 days): to a lesser extent
- NOx−—N accumulation: effect of temperature (25° C. vs 35° C.) ([2]; Horsham soil, 28-day incubation): lower at the elevated temperature
- nitrification rates vs uninhibited control treatment ([2]; Horsham soil, 35° C.): lower nitrification rates than the uninhibited control treatment
- retaining NH4+—N vs uninhibited control treatment and DMPP ([3]; Dahlen soil, 25° C., after 28 days): performed statistically better
- retaining NH4+ vs both DMPP treatment and control treatment ([3]; Dahlen soil, 35° C., after 28 days): performed statistically better
- Nitrified NH4+—N (%) Day 3 [3, 7]: 7.5 ± 5.2%
- Nitrified NH4+—N (%) Day 7 [3, 7]: 21.2 ± 12.2%
- Nitrified NH4+—N (%) Day 14 [3, 7]: 20.3 ± 21.6%
- Nitrified NH4+—N (%) Day 21 [3, 7]: 32.9 ± 18.4%
- Nitrified NH4+—N (%) Day 28 [3, 7]: 37.6 ± 11.0%
- Nitrified NH4+—N (%) Day 3 [3, 8]: 1.7 ± 3.3%
- Nitrified NH4+—N (%) Day 7 [3, 8]: −1.3 ± 1.9%
- Nitrified NH4+—N (%) Day 14 [3, 8]: 2.0 ± 2.4%
- Nitrified NH4+—N (%) Day 21 [3, 8]: 29.6 ± 3.6%
- Nitrified NH4+—N (%) Day 28 [3, 8]: 22.4 ± 1.5%
- Nitrified NH4+—N (%) Day 3 [1]: 27.2 ± 2.0%
- Nitrified NH4+—N (%) Day 7 [1]: 64.8 ± 2.3%
- Nitrified NH4+—N (%) Day 14 [1]: 95.6 ± 2.8%
- Nitrified NH4+—N (%) Day 28 [1]: 100 ± 2.7%

Compound: CCCCn1cc(C(C)(C)O)nn1 [Compound 4, 1-butyl-4-(α,α-dimethylmethanol)-1H-1,2,3-triazole]
- Nitrified NH4+—N (%) Day 3 [1]: 27.0 ± 7.5%
- Nitrified NH4+—N (%) Day 7 [1]: 67.3 ± 5.2%
- Nitrified NH4+—N (%) Day 14 [1]: 96.4 ± 5.8%
- Nitrified NH4+—N (%) Day 28 [1]: 100 ± 5.9%

Compound: C=CCn1cc(CCC)nn1 [Compound 18, 1-(2-propen-1-yl)-4-propyl-1H-1,2,3-triazole]
- retaining NH4+—N levels by day 28 vs fertilised control (and DMPP) ([3]; Dahlen soil, 25° C., Table 5 test): performed statistically better
- retaining NH4+—N vs (NH4)2SO4-treated control by day 28 ([3]; Dahlen soil, 35° C., Table 5 test): remain highly effective
- Nitrified NH4+—N (%) Day 3 ([3]; Table 5 (further comparative test), Dahlen soil pH 7.3, 25° C.): 5.1 ± 5.3%
- Nitrified NH4+—N (%) Day 7 [3, 9]: 4.4 ± 1.1%
- Nitrified NH4+—N (%) Day 14 [3, 9]: 29.4 ± 2.4%
- Nitrified NH4+—N (%) Day 21 [3, 9]: 32.1 ± 2.3%
- Nitrified NH4+—N (%) Day 28 [3, 9]: 40.5 ± 1.5%
- Nitrified NH4+—N (%) Day 3 [3, 10]: 9.0 ± 4.3%
- Nitrified NH4+—N (%) Day 7 [3, 10]: 4.5 ± 4.3%
- Nitrified NH4+—N (%) Day 14 [3, 10]: 26.7 ± 3.9%
- Nitrified NH4+—N (%) Day 21 [3, 10]: 19.8 ± 5.0%
- Nitrified NH4+—N (%) Day 28 [3, 10]: 43.0 ± 4.7%
- Nitrified NH4+—N (%) Day 3 ([4]; South Johnstone soil pH 5.0, 25° C., negative = NH4+—N higher than day 0 (mineralisation)): −6.2 ± 0.9%
- Nitrified NH4+—N (%) Day 7 [4, 11]: −8.5 ± 1.0%
- Nitrified NH4+—N (%) Day 14 [4, 11]: −11.0 ± 1.0%
- Nitrified NH4+—N (%) Day 21 [4, 11]: −12.1 ± 1.4%
- Nitrified NH4+—N (%) Day 28 ([4]; South Johnstone soil pH 5.0, 25° C., day 28): −14.9 ± 1.4%
- Nitrified NH4+—N (%) Day 3 [4, 12]: −11.7 ± 2.0%
- Nitrified NH4+—N (%) Day 7 [4, 12]: −28.7 ± 1.5%
- Nitrified NH4+—N (%) Day 14 [4, 12]: −35.8 ± 1.3%
- Nitrified NH4+—N (%) Day 21 [4, 12]: −31.7 ± 1.1%
- Nitrified NH4+—N (%) Day 28 ([4]; South Johnstone soil pH 5.0, 35° C., day 28): −16.9 ± 1.8%
- effectiveness compared to treatment with DMPP (higher NH4+—N, lower NOx−—N) ([4]; South Johnstone soil, 25° C., day 28): statistically higher effectiveness
- retaining NH4+—N vs DMPP ([4]; South Johnstone soil, 35° C.): performed statistically better than DMPP
- retaining NH4+—N and slowing NOx−—N growth vs fertilised control ([4]; South Johnstone soil, 35° C., day 28): performed statistically better than the fertilised control
